Source: US20130039928A1, “COMPOSITIONS AND METHODS FOR REVERSING CORTICOSTEROID RESISTANCE OR TREATING RESPIRATORY INFECTIONS” (priority 2010, published 2013)

What was measured:
[1] = system: nontypeable Haemophilus influenzae
Procedure: Human alveolar macrophages were purified from individual BAL samples by centrifugation and seeded onto 6-well tissue culture plates. After incubation for 2 h, non-adherent cells were removed and the adherent cells were incubated with R, S-sulforaphane (5 μM; LKT Laboratories, Inc., St. Paul, Minn.) and or DMSO in RPMI 1640 culture medium with 10% FBS and 1% penicillin-streptomycin (Invitrogen, Carlsbad, Calif.). After 16-20 h, adherent cells were scraped, suspended in RPMI 1640 culture media and plated onto 96-well tissue culture plates for bacterial phagocytosis and clearance assays. […] For MARCO antibody-depletion, alveolar macrophages were incubated with human anti-MARCO antibody (1 μg/ml; (Hycult, Uden, The Netherlands) for 4 hours prior to bacterial challenge. […]
After treatment, macrophages (10^5 cells) were incubated with bacteria (PA or NTHI) for 4 h. […] The number of bacterial colonies was counted after 24 h.

Nrf2 [2] = details: COPD alveolar macrophages, 5 μM for 16 h
Procedure: For inducing corticosteroid resistance, PMs were exposed to cigarette smoke condensate (CSC, 100 μg/ml; Murty Pharmaceuticals, Lexington, Ky.) for 16 h. Exposure to S-nitrosoglutathione (GSNO, 10 μM) was limited to 4 h. […] For assessing corticosteroid responsiveness, macrophages were incubated with dexamethasone (1 μM, Sigma) for 1 h followed by LPS (100 ng/ml, Sigma) for additional 4 h.
All immunoblots were performed by using protocols as described previously (Barnes, P. J., N Engl J Med 343, 269-280 (2000)). Rabbit anti-HDAC2 antibody from Santa Cruz Biotechnology (Santa Cruz, Calif.) was used at 1:500 dilutions. Rabbit anti-5-nitroso-cysteine antibody from Alpha diagnostics was used at 1:500 dilutions. Rabbit anti-nitro-tyrosine antibody from Cell Signaling Technology, was used at 1:250 dilution. Rabbit anti-ubiquitin antibody from Santa Cruz Biotechnology (Santa Cruz, Calif.) was used at 1:1000 dilutions. Rabbit anti-GR antibody from Santa Cruz Biotechnology (Santa Cruz, Calif.) was used at a dilution of 1:1000. Rabbit anti-MMP9 antibody from Sigma Aldrich was used at 1:500 dilutions. Rabbit anti-acetyl-lysine antibody from Abcam was used at 1:750 dilutions. Rabbit anti-lamin-B1 from Santa Cruz Biotechnology (Santa Cruz, Calif.) was used at 1:1000 dilutions as a loading control. The Image J program was used for densitometry analyses.
Total RNA was extracted from the cells by lysis and specific binding to a silica membrance (Qiagen RNeasy kit, Qiagen, Valencia, Calif.), and qRT-PCR was performed by using primers and probe sets for human IL-8, NQO1, GCLM, and iNOS (Assay-on-Demand, Applied Biosystems, Foster City, Calif.). A real-time fluorescent PCR system (ABI 7000 Taqman system, Applied Biosystems) was used to perform these assays. β-actin was used as the normalization control.

MARCO = system: MARCO
Procedure: (§1) Human alveolar macrophages were purified from individual BAL samples by centrifugation and seeded onto 6-well tissue culture plates. After incubation for 2 h, non-adherent cells were removed and the adherent cells were incubated with R, S-sulforaphane (5 μM; LKT Laboratories, Inc., St. Paul, Minn.) and or DMSO in RPMI 1640 culture medium with 10% FBS and 1% penicillin-streptomycin (Invitrogen, Carlsbad, Calif.). After 16-20 h, adherent cells were scraped, suspended in RPMI 1640 culture media and plated onto 96-well tissue culture plates for bacterial phagocytosis and clearance assays. […] For MARCO antibody-depletion, alveolar macrophages were incubated with human anti-MARCO antibody (1 μg/ml; (Hycult, Uden, The Netherlands) for 4 hours prior to bacterial challenge.
(§2) GAPDH was used for normalization.

Nrf2 [3] = details: COPD alveolar macrophages
Procedure: as §1, §2

Pseudomonas aeruginosa = details: THP-1 macrophages, 10 μM for 24 hours
Procedure: To determine intracellular killing, macrophages were treated with vehicle (DMSO) or sulforaphane (10 μM) for 24 hours. Cells were then washed and the medium was replaced with serum-free medium. After the medium replacement, approximately 10^5 CFUs of PA were added to each well. After 1 h, the medium was removed and cells were washed, and the gentamicin-containing medium was added to kill bound, unphagocytosed bacteria. Cells were lysed at the indicated time points, and lysates were plated to determine viable intracellular bacteria.

Q: `C[S+]([O-])CCCCN=C=S` (stereo not shown) [sulforaphane] was tested. Which “clearance of nontypeable Haemophilus influenzae (decrease in CFU in culture medium)” value ([1]; COPD alveolar macrophages, compared to vehicle, 4 h with bacteria) did it give?
A: 40-95%

Q: What about the “bactericidal activity towards nontypeable Haemophilus influenzae” value ([1]; cell-free medium with sulforaphane alone) of the same compound?
A: no bactericidal activity

Q: And the “GSH biosynthesizing enzymes (GCLC, GCLM)” value (Nrf2 [2])?
A: significantly elevated

Q: What about the “Nrf2-regulated antioxidant genes (NQO1, HO-1)” value (Nrf2 [2]) of the same compound?
A: significantly elevated

Q: What about the “Nrf2 nuclear protein levels” value (Nrf2 [2]) of the same compound?
A: significantly elevated

Q: And the “surface expression of MARCO protein” value (MARCO; COPD alveolar macrophages, flow cytometry, compared to vehicle, p<0.001)?
A: 2- to 5 fold

Q: And the “expression of MARCO mRNA” value (MARCO; alveolar macrophages transfected with Nrf2-siRNA, compared to control ssRNA)?
A: failed to upregulate the expression of MARCO mRNA

Q: What about the “Nrf2-regulated target genes (NQO1 & GPX2) mRNA” value (Nrf2 [3]) of the same compound?
A: upregulation of Nrf2-regulated targets genes

Q: What about the Nrf2 protein levels (Nrf2 [3]; flow cytometry, vs vehicle) of the same compound?
A: elevated levels of Nrf2 protein

Q: And the “kinetics of intracellular killing” value (Pseudomonas aeruginosa)?
A: moderate increase in the kinetics of intracellular killing
